Reference: article PMC8286840, “Identifying SARS-CoV-2 antiviral compounds by screening for small molecule inhibitors of Nsp3 papain-like protease” (Biochemical Journal, 2021)
Counter-ions that a name gives are not always drawn. Like-named read-outs stand apart in the source and are kept apart here.

Experiments:
[1] = target: T1, SARS-CoV-2 PLpro (nsp3 1564–1878) (Severe acute respiratory syndrome coronavirus 2, UniProt P0DTD1); test: biochemical; set-up: FRET-quenched peptide (Pro3) cleavage by PLpro, 10 min pre-incubation, slope over 20 min, normalised to no-compound control; settings: high concentration screen, read-out: % of control remaining
[2] = target: T1, SARS-CoV-2 PLpro (nsp3 1564–1878); test: biochemical; set-up: FRET-quenched peptide (Pro3) cleavage by PLpro, 10 min pre-incubation, slope over 20 min, normalised to no-compound control; settings: low concentration screen, read-out: % of control remaining

With `CCCCC[C@H](O)/C=C/[C@H]1C=CC(=O)[C@@H]1C/C=C\CCCC(=O)O` [Prostaglandin A2] as the compound, how does the remaining activity at 3.75 µM ([1]; Well no.=4467) read?
The remaining activity at 3.75 µM was 96.3%.

And the remaining activity at 1.25 µM ([2]; Well no.=4467)?
Its remaining activity at 1.25 µM is 100%.

What does the source list for `CCCCC[C@H](O)/C=C/C1=C(CCCCCCC(=O)O)C(=O)CC1` [Prostaglandin B1]?
remaining activity at 3.75 µM ([1]; Well no.=3088): 100%; remaining activity at 3.75 µM ([1]; Well no.=4469): 102%; remaining activity at 1.25 µM ([2]; Well no.=3088): 99.1%; remaining activity at 1.25 µM ([2]; Well no.=4469): 102%

`CCCCC[C@H](O)/C=C/C1=C(C/C=C\CCCC(=O)O)C(=O)CC1` [Prostaglandin B2] was tested. Which remaining activity at 3.75 µM ([1]; Well no.=4471) did it give?
Its remaining activity at 3.75 µM is 101%.

And the remaining activity at 1.25 µM ([2]; Well no.=4471)?
Its remaining activity at 1.25 µM is 96.7%.

Which results are given for `CCCCC[C@H](O)/C=C/[C@H]1[C@H](O)CC(=O)[C@@H]1CCCCCCC(=O)O` [Prostaglandin E1]?
remaining activity at 3.75 µM ([1]; Well no.=2192): 91.2%; remaining activity at 3.75 µM ([1]; Well no.=3090): 97%; remaining activity at 3.75 µM ([1]; Well no.=4473): 101%; remaining activity at 3.75 µM ([1]; Well no.=4475): 94.7%; remaining activity at 3.75 µM ([1]; Well no.=8109): 95%; remaining activity at 1.25 µM ([2]; Well no.=2192): 92.3%; remaining activity at 1.25 µM ([2]; Well no.=3090): 95.3%; remaining activity at 1.25 µM ([2]; Well no.=4473): 103%; remaining activity at 1.25 µM ([2]; Well no.=4475): 93.1%; remaining activity at 1.25 µM ([2]; Well no.=8109): 91.2%

What does the source list for `CCCCC[C@H](O)/C=C/[C@H]1[C@H](O)CC(=O)[C@@H]1C/C=C\CCCC(=O)O` [Prostaglandin E2]?
remaining activity at 3.75 µM ([1]; Well no.=1625): 103%; remaining activity at 3.75 µM ([1]; Well no.=3092): 101%; remaining activity at 3.75 µM ([1]; Well no.=6151): 110%; remaining activity at 3.75 µM ([1]; Well no.=8105): 95.4%; remaining activity at 1.25 µM ([2]; Well no.=1625): 100%; remaining activity at 1.25 µM ([2]; Well no.=3092): 98.6%; remaining activity at 1.25 µM ([2]; Well no.=4477): 99.7%; remaining activity at 1.25 µM ([2]; Well no.=6151): 106%; remaining activity at 1.25 µM ([2]; Well no.=8105): 94.3%

How did the remaining activity at 3.75 µM ([1]; Well no.=4483) turn out when `CCCCC[C@H](O)/C=C/[C@@H]1[C@H]2C/C(=C/CCCC(=O)O)O[C@H]2C[C@H]1O` [Prostaglandin I2 Na] was run?
Its remaining activity at 3.75 µM is 102%.

What about the remaining activity at 1.25 µM ([2]; Well no.=4483) of the same compound?
Its remaining activity at 1.25 µM is 99%.

How did the remaining activity at 3.75 µM ([1]; Well no.=2147) turn out when `CCCc1cc(C(N)=S)ccn1` [Prothionamide] was run?
Its remaining activity at 3.75 µM is 99.4%.

And the remaining activity at 1.25 µM ([2]; Well no.=2147)?
The remaining activity at 1.25 µM was 97%.

What does the source list for `O=C(O)c1ccc(O)c(O)c1` [Protocatechuic acid]?
remaining activity at 3.75 µM ([1]; Well no.=4047): 101%; remaining activity at 1.25 µM ([2]; Well no.=4047): 99.6%

Which remaining activity at 3.75 µM ([1]; Well no.=3195) does the source give for `CN1CCc2cc3c(cc2C(=O)Cc2cc4c(cc2C1)OCO4)OCO3` [Protopine] here?
Its remaining activity at 3.75 µM is 104%.

What about the remaining activity at 1.25 µM ([2]; Well no.=3195) of the same compound?
The remaining activity at 1.25 µM was 105%.

How did the remaining activity at 3.75 µM ([1]; Well no.=1207) turn out when `C=CC1=C(C)c2cc3[nH]c(cc4nc(cc5[nH]c(cc1n2)c(C)c5CCC(=O)O)C(CCC(=O)O)=C4C)c(C)c3C=C` [Protoporphyrin IX disodium] was run?
Its remaining activity at 3.75 µM is 102%.

And the remaining activity at 1.25 µM ([2]; Well no.=1207)?
Its remaining activity at 1.25 µM is 104%.

For `CNCCCC1c2ccccc2C=Cc2ccccc21` [Protriptyline hydrochloride], which remaining activity at 3.75 µM ([1]; Well no.=1209) is on record?
Its remaining activity at 3.75 µM is 104%.

What about the remaining activity at 1.25 µM ([2]; Well no.=1209) of the same compound?
Its remaining activity at 1.25 µM is 108%.

What does the source list for `CC(O)Cn1cnc2c1c(=O)n(C)c(=O)n2C` (centres unmarked) [Proxyphylline]?
remaining activity at 3.75 µM ([1]; Well no.=6220): 94%; remaining activity at 3.75 µM ([1]; Well no.=8073): 108%; remaining activity at 1.25 µM ([2]; Well no.=6220): 94.5%; remaining activity at 1.25 µM ([2]; Well no.=8073): 105%

What does the source list for `COCCCN1CCC(NC(=O)c2cc(Cl)c(N)c3c2OCC3)CC1` [Prucalopride (succinate)]?
remaining activity at 3.75 µM ([1]; Well no.=7675): 103%; remaining activity at 1.25 µM ([2]; Well no.=7675): 100%

What does the source list for `COCCCN1CCC(NC(=O)c2cc(Cl)c(N)c3c2OCC3)CC1` [Prucalopride]?
remaining activity at 3.75 µM ([1]; Well no.=4835): 98.1%; remaining activity at 3.75 µM ([1]; Well no.=8143): 101%; remaining activity at 1.25 µM ([2]; Well no.=4835): 99.7%; remaining activity at 1.25 µM ([2]; Well no.=8143): 103%

Which remaining activity at 3.75 µM ([1]; Well no.=1674) does the source give for `COc1ccc(C[C@H](N)C(=O)N[C@H]2[C@@H](O)[C@H](n3cnc4c(N(C)C)ncnc43)O[C@@H]2CO)cc1` [Puromycin] here?
The remaining activity at 3.75 µM was 97.6%.

And the remaining activity at 3.75 µM ([1]; Well no.=3350)?
The remaining activity at 3.75 µM was 90.4%.

And the remaining activity at 1.25 µM ([2]; Well no.=1674)?
Its remaining activity at 1.25 µM is 98.5%.

And the remaining activity at 1.25 µM ([2]; Well no.=3350)?
Its remaining activity at 1.25 µM is 93.8%.

For `CC(C)[C@H](CO)Nc1nc(Nc2cccc(Cl)c2)c2ncn(C(C)C)c2n1` [Purvalanol A - (2R)-2-[[6-[(3-Chlorophenyl)amino]-9-(1-methylethyl)-9H-purin-2-yl]amino]-3-methyl-1-butanol], which remaining activity at 3.75 µM ([1]; Well no.=2434) is on record?
The remaining activity at 3.75 µM was 105%.

What about the remaining activity at 1.25 µM ([2]; Well no.=2434) of the same compound?
Its remaining activity at 1.25 µM is 105%.

How did the remaining activity at 3.75 µM ([1]; Well no.=1050) turn out when `CC(C)[C@H](CO)Nc1nc(Nc2cccc(Cl)c2)c2ncn(C(C)C)c2n1` [Purvalanol A] was run?
The remaining activity at 3.75 µM was 86.5%.

What about the remaining activity at 3.75 µM ([1]; Well no.=2606) of the same compound?
The remaining activity at 3.75 µM was 92%.

And the remaining activity at 1.25 µM ([2]; Well no.=1050)?
The remaining activity at 1.25 µM was 86.7%.

And the remaining activity at 1.25 µM ([2]; Well no.=2606)?
The remaining activity at 1.25 µM was 91.1%.

For `CC(C)[C@H](CO)Nc1nc(Nc2ccc(C(=O)O)c(Cl)c2)c2ncn(C(C)C)c2n1` [Purvalanol B - (2R)-2-[[6-[(3-Chloro-4-carboxyphenyl)amino]-9-(1-methylethyl)-9H-purin-2-yl]amino]-3-methyl-1-butanol], which remaining activity at 3.75 µM ([1]; Well no.=2436) is on record?
The remaining activity at 3.75 µM was 105%.

What about the remaining activity at 1.25 µM ([2]; Well no.=2436) of the same compound?
The remaining activity at 1.25 µM was 103%.

For `CC(C)[C@H](CO)Nc1nc(Nc2ccc(C(=O)O)c(Cl)c2)c2ncn(C(C)C)c2n1` [Purvalanol B], which remaining activity at 3.75 µM ([1]; Well no.=2843) is on record?
Its remaining activity at 3.75 µM is 94.9%.

What about the remaining activity at 1.25 µM ([2]; Well no.=2843) of the same compound?
The remaining activity at 1.25 µM was 96.5%.

With `NCCCCN` [Putrescine dihydrochloride] as the compound, how does the remaining activity at 3.75 µM ([1]; Well no.=1205) read?
Its remaining activity at 3.75 µM is 102%.

What about the remaining activity at 1.25 µM ([2]; Well no.=1205) of the same compound?
Its remaining activity at 1.25 µM is 103%.

With `O=S(=O)(NCc1ccccn1)c1ccc(Br)c2ccccc12` [Pyrabactin] as the compound, how does the remaining activity at 3.75 µM ([1]; Well no.=5918) read?
The remaining activity at 3.75 µM was 95.8%.

And the remaining activity at 1.25 µM ([2]; Well no.=5918)?
The remaining activity at 1.25 µM was 96.4%.

`NC(=O)c1cnccn1` [Pyrazinecarboxamide] was tested. Which remaining activity at 3.75 µM ([1]; Well no.=1395) did it give?
The remaining activity at 3.75 µM was 99.2%.

What about the remaining activity at 1.25 µM ([2]; Well no.=1395) of the same compound?
Its remaining activity at 1.25 µM is 101%.

Which results are given for `CN(C)C(=O)Oc1ccc[n+](C)c1` [Pyridostigmine bromide]?
remaining activity at 3.75 µM ([1]; Well no.=1499): 91.4%; remaining activity at 1.25 µM ([2]; Well no.=1499): 89.1%

Which results are given for `Cc1ncc(COP(=O)(O)O)c(C=O)c1O` [Pyridoxal phosphate]?
remaining activity at 3.75 µM ([1]; Well no.=6389): 101%; remaining activity at 1.25 µM ([2]; Well no.=6389): 103%

Which remaining activity at 3.75 µM ([1]; Well no.=4935) does the source give for `Cc1ncc(CO)c(CO)c1O` [Pyridoxine HCl] here?
Its remaining activity at 3.75 µM is 96.8%.

And the remaining activity at 1.25 µM ([2]; Well no.=4935)?
Its remaining activity at 1.25 µM is 97.7%.

Which remaining activity at 3.75 µM ([1]; Well no.=814) does the source give for `COc1ccc(CN(CCN(C)C)c2ccccn2)cc1` [Pyrilamine maleate] here?
The remaining activity at 3.75 µM was 104%.

And the remaining activity at 1.25 µM ([2]; Well no.=814)?
Its remaining activity at 1.25 µM is 101%.

With `CCc1nc(N)nc(N)c1-c1ccc(Cl)cc1` [Pyrimethamine] as the compound, how does the remaining activity at 3.75 µM ([1]; Well no.=4708) read?
Its remaining activity at 3.75 µM is 97.2%.

And the remaining activity at 1.25 µM ([2]; Well no.=4708)?
Its remaining activity at 1.25 µM is 102%.

What does the source list for `Oc1ccccc1O` [Pyrocatechol]?
remaining activity at 3.75 µM ([1]; Well no.=190): 98%; remaining activity at 1.25 µM ([2]; Well no.=190): 101%

How did the remaining activity at 3.75 µM ([1]; Well no.=6975) turn out when `Oc1cccc(O)c1O` [Pyrogallol] was run?
The remaining activity at 3.75 µM was 105%.

And the remaining activity at 1.25 µM ([2]; Well no.=6975)?
Its remaining activity at 1.25 µM is 104%.
